# Data: US5885986A, “Oxazolyl- and thiazolylimidazo-benzo- and thienodiazepines and their use as medicaments” (Hoffmann-La Roche Inc., priority 1994, dated 1999)
# Read-outs that look alike come from different tables or passages of the source.
# Tests used:
# [1] = rotating rod test (sedative/muscle relaxant properties); format: in vivo, mice; conditions: Mus musculus, iv, i.v., read-out: Rotating rod test, ED550
# Experimental: The sedative/muscle relaxant properties of the compounds of formula I in accordance with the invention can be determined, for example, in the rotating rod test. Mice weighing 19-21 g are used for this test. They have free access to feed and drinking water up to 1 h before the beginning of the test. They are brought into the test laboratory at least 30 min. before the test. In the rotating rod test the animals are placed on a horizontally arranged, smooth metal rod having a diameter of 3 cm, which is rotated at 2 revolutions per min. Initially, the animals are given the opportunity of familiarizing themselves with the test situation for 30 sec. Subsequently, those animals which succeed in remaining on the rod for at least 1 min. are selected. These animals are then given the test preparations intravenously in different dosages. At various points in time it is then determined whether the animals are able to remain on the rod for a minimum period (minimum period: 10 sec.; from 5 min. after administration: 1 min.). That dosage at which 50% of the animals are capable of remaining on the rod (ED50) is determined.
# [2] = molecular target: central benzodiazepine receptors; assay: inhibition of the binding of tritiated flumazenil to the specific benzodiazepine receptors in the cortex of rats; conditions: read-out: Affinity to benzodiazepine receptors IC50
# Experimental: The affinity of compounds of general formula I to the central benzodiazepine receptors has been established in vitro according to the methods described in Nature 294, 763-765 (1981) and J. Neurochemistry 37, 714-722 (1981). According to these methods, the inhibition of the binding of tritiated flumazenil to the specific benzodiazepine receptors in the cortex of rats by the respective test substances is determined. The IC50 ("50% inhibiting concentration") denotes that concentration of the respective test substance which brings about a 50 percent inhibition of the specific binding of tritiated flumazenil to the specific benzodiazepine receptors in the cortex of rats.
# [3] = 15 s, 15 sec after administration
# [4] = 0.5 min, 30 sec after administration
# [5] = 1 min, 60 sec after administration
# [6] = 2 min, 2 min after administration
# [7] = 5 min, 5 min after administration
# [8] = 0.25 h, 15 min after administration
# [9] = 0.5 h, 30 min after administration
# [10] = 1 h, 60 min after administration
SMILES,"ED50 [1, 3]","ED50 [1, 4]","ED50 [1, 5]","ED50 [1, 6]","ED50 [1, 7]","ED50 [1, 8]","ED50 [1, 9]","ED50 [1, 10]",IC50 [2]
"CCCN(CCC)Cc1cnc(-c2ncn3c2[C@@H]2CCN2C(=O)c2c(Cl)cccc2-3)o1 [A, (S)-8-chloro-1-(5-dipropylaminomethyl-oxazol-2-yl)-12,12a-dihydro-9H,11H-azeto[2,1-c]imidazo[1,5-a][1,4]benzodiazepin-9-one]",0.3 mg/kg,0.4 mg/kg,0.6 mg/kg,1.1 mg/kg,1.8 mg/kg,> 10 mg/kg,> 10 mg/kg,> 10 mg/kg,0.032 µM
"CCCN(CCC)Cc1cnc(-c2ncn3c2CN(C)C(=O)c2cc(F)ccc2-3)o1 [B, 3-(5-dipropylaminomethyl-oxazol-2-yl)-8-fluoro-5-methyl-5,6-dihydro-4H-imidazo[1,5-a][1,4]benzodiazepin-6-one]",0.3 mg/kg,0.5 mg/kg,0.7 mg/kg,1.6 mg/kg,2.6 mg/kg,4.9 mg/kg,> 10 mg/kg,> 10 mg/kg,0.059 µM
"CCCN(CCC)Cc1cnc(-c2ncn3c2CN(C)C(=O)c2c-3ccc(F)c2Cl)o1 [C, 7-chloro-3-(5-dipropylaminomethyl-oxazol-2-yl)-8-fluoro-5-methyl-5,6-dihydro-4H-imidazo[1,5-a][1,4]benzodiazepin-6-one]",0.3 mg/kg,0.3 mg/kg,0.5 mg/kg,0.7 mg/kg,1.6 mg/kg,2 mg/kg,> 10 mg/kg,≥ 10 mg/kg,0.007 µM
"CCCN(CCC)Cc1cnc(-c2ncn3c2[C@@H]2CCN2C(=O)c2sccc2-3)o1 [D, (S)-1-(5-dipropylaminomethyl-oxazol-2-yl)-11,11a-dihydro-8H,10H-azeto[1,2-a]imidazo[5,1-c]thieno[3,2-e][1,4]diazepin-8-one]",0.1 mg/kg,0.2 mg/kg,0.4 mg/kg,0.5 mg/kg,1.8 mg/kg,3.6 mg/kg,> 10 mg/kg,> 10 mg/kg,0.007 µM
"CCCN(CCC)Cc1csc(-c2ncn3c2[C@@H]2CCN2C(=O)c2c(Cl)cccc2-3)n1 [E, (S)-8-chloro-1-(4-dipropylaminomethyl-thiazol-2-yl)-12,12a-dihydro-9H,11H-azeto[2,1-c]imidazo[1,5-a][1,4]benzodiazepin-9-one]",0.3 mg/kg,0.3 mg/kg,0.3 mg/kg,0.9 mg/kg,1 mg/kg,3.2 mg/kg,≥ 10 mg/kg,> 10 mg/kg,0.011 µM
"CCCN(CCC)Cc1cnc(-c2ncn3c2CN(C)C(=O)c2ccccc2-3)o1 [F, 3-(5-dipropylaminomethyl-oxazol-2-yl)-5-methyl-5,6-dihydro-4H-imidazo[1,5-a][1,4]benzodiazepin-6-one]",1.7 mg/kg,3.9 mg/kg,4.7 mg/kg,≥ 10 mg/kg,≥ 10 mg/kg,> 10 mg/kg,> 10 mg/kg,> 10 mg/kg,0.066 µM
"CCCN(CCC)Cc1cnc(-c2ncn3c2CN(C)C(=O)c2c(Cl)cccc2-3)o1 [G, 7-chloro-3-(5-dipropylaminomethyl-oxazol-2-yl)-5-methyl-5,6-dihydro-4H-imidazo[1,5-a][1,4]benzodiazepin-6-one]",1 mg/kg,1.2 mg/kg,1.8 mg/kg,2.1 mg/kg,3 mg/kg,3.4 mg/kg,5.6 mg/kg,> 10 mg/kg,0.004 µM
"CCCCN(CCCC)Cc1cnc(-c2ncn3c2CN(C)C(=O)c2cc(F)ccc2-3)o1 [H, 3-(5-dibutylaminomethyl-oxazol-2-yl)-8-fluoro-5-methyl-5,6-dihydro-4H-imidazo[1,5-a][1,4]benzodiazepin-6-one]",1.1 mg/kg,1.1 mg/kg,1.2 mg/kg,2.1 mg/kg,3.4 mg/kg,≥ 10 mg/kg,> 10 mg/kg,> 10 mg/kg,0.035 µM
"CCCN(CCC)Cc1cnc(-c2ncn3c2CN(C)C(=O)c2sccc2-3)o1 [I, 3-(5-dipropylaminomethyl-oxazol-2-yl)-5-methyl-5,6-dihydro-4H-imidazo[1,5-a]thieno[2,3-f][1,4]diazepin-6-one]",1.8 mg/kg,1.7 mg/kg,3.4 mg/kg,3.9 mg/kg,8.7 mg/kg,> 10 mg/kg,> 10 mg/kg,> 10 mg/kg,0.017 µM
"CCCN(CCC)Cc1csc(-c2ncn3c2CN(C)C(=O)c2c(Cl)cccc2-3)n1 [J, 7-chloro-3-(4-dipropylaminomethyl-thiazol-2-yl)-5-methyl-5,6-dihydro-4H-imidazo[1,5-a][1,4]benzodiazepin-6-one]",0.7 mg/kg,0.9 mg/kg,2.3 mg/kg,≥ 10 mg/kg,≥ 10 mg/kg,> 10 mg/kg,> 10 mg/kg,> 10 mg/kg,0.0052 µM
"CCCN(CCC)Cc1csc(-c2ncn3c2[C@@H]2CCCN2C(=O)c2c(Cl)cccc2-3)n1 [K, (S)-8-chloro-1-(4-dipropylaminomethyl-thiazol-2-yl)-11,12,13,13a-tetrahydro-9H-imidazo[1,5-a]pyrrolo[2,1-c][1,4]benzodiazepin-9-one]",1.8 mg/kg,1.8 mg/kg,5.6 mg/kg,3.7 mg/kg,5.6 mg/kg,≥ 10 mg/kg,≥ 10 mg/kg,> 10 mg/kg,0.015 µM
"CCCN(CCC)Cc1csc(-c2ncn3c2CN(C)C(=O)c2c-3ccc(F)c2Cl)n1 [L, 7-chloro-3-(4-dipropylaminomethyl-thiazol-2-yl)-8-fluoro-5-methyl-5,6-dihydro-4H-imidazo[1,5-a][1,4]benzodiazepin-6-one]",1.1 mg/kg,1.1 mg/kg,1.1 mg/kg,2.8 mg/kg,4.7 mg/kg,5.7 mg/kg,≥ 10 mg/kg,> 10 mg/kg,0.016 µM
"CCCN(CCC)Cc1coc(-c2ncn3c2CN(C)C(=O)c2c(Cl)cccc2-3)n1 [M, 7-chloro-3-(4-dipropylaminomethyl-oxazol-2-yl)-5-methyl-5,6-dihydro-4H-imidazo[1,5-a][1,4]benzodiazepin-6-one]",0.4 mg/kg,1 mg/kg,1.2 mg/kg,3 mg/kg,3.7 mg/kg,8.8 mg/kg,≥ 10 mg/kg,> 10 mg/kg,0.015 µM
